Measurements: patent US9724354B2, “Combination of catalytic mTORC1/2 inhibitors and selective inhibitors of Aurora A kinase” (Millennium Pharmaceuticals, Inc., priority 2013, dated 2017)

How the values were obtained:
[1] = tested on: PHTX-147B breast xenograft; experiment: In vivo tumor efficacy, PHTX-147B breast xenograft model; design: species or system female Balb/c nude mice; details: PO
Text: (§1) The PHTX-147B breast xenograft model was established from a patient-derived tumor collected during surgery from a person with ductal carcinoma classified as triple negative breast cancer (ER−/PR−/Her2−) by IHC. PHTX-147B tumor fragments (approximately 2×2×3 mm^3) at passage 7 are implanted into the subcutaneous space in the right dorsal flank of female Balb/c nude mice (age 4-6 weeks, Shanghai SINO-British SIPPR/BK Lab Animal Ltd.).
(§2) MLN8237 was formulated in 10% HPbCD+1% NaHCO3 and administered by oral injection (1 cc syringe, 20-22 gauge, oral gavages needle) on QD schedule at 3 mg/kg and 20 mg/kg for 21 days. MLN8237 as used in the experimental section refers to sodium 4-{[9-chloro-7-(2-fluoro-6-methoxyphenyl)-5H-pyrimido[5,4-d][2]benzazepin-2-yl]amino}-2-methoxybenzoate monohydrate and the amount referenced is the amount of alisertib dosed. MLN8237 is dosed 24 hours prior to MLN0128 in all three models.
(§3) MLN0128 is formulated in 100% PEG400 and administered by oral injection (1 cc syringe, 20-22 gauge, oral gavages needle) on QD schedule at 0.3 mg/kg for 21 days. 1 mg/kg QD×3/weeks for 3 weeks. MLN0128 is dosed 24 hours after MLN8237 dosing.
(§4) Tumors are measured twice weekly using a vernier caliper. Tumor volumes are calculated using standard procedures (0.5×(length×width^2)). When the tumors reached a volume of approximately 200 mm^3 (PHTX-14B, PHTX-147B) or 167 mm^3 (SUM-149PT), mice are randomized into groups of 8 as described in the tables below, and dosed with vehicle, MLN8237 or MLN0128 or the combination of MLN8237 with MLN0128, at various doses as described below in Tables 8a-10a. Tumor size and body weight are measured approximately twice a week for the duration of the study. Mice are euthanized when their tumor volume reached 10% of their body weight, or when the average tumor volume of a treatment or control group reached approximately 2000 mm^3. Tumor growth continued to be monitored after the dosing period in some studies. Average tumor volume is reported as a function of time for selected groups of selected studies in FIGS. 3, 4 and 5.
(§5) Measurements from day 0 to 21 are analyzed as specified in Tables 8a-10a. All tumor volumes have a value of 1 added to them before log10 transformation. For each animal, the log tumor volume at day 0 is subtracted from the log tumor volume on the subsequent days. This difference vs. time is used to calculate an area under the curve (AUC) for each animal using the trapezoid rule. In instances when an animal in a treatment group is removed early from the study, the last observed tumor value is carried forward through all subsequent time points. The synergy score for the combination of agents A and B is defined as: 100*(mean(AUCAB)−mean(AUCA)−mean(AUCB)+mean(AUCctl))/mean(AUCctl): where AUCAB, AUCA, AUCB, and AUCctl are the AUC values for animals in the combination group, the A group, the B group, and the control group, respectively. The standard error of the synergy score is computed based on the variation in the AUC values among the animals. […] If the P-value is above 0.05, then the combination is considered to be additive. If the P-value is below 0.05, and the synergy score is less than zero, then the combination is considered to be synergistic. […] Otherwise, the combination is classified as antagonistic.

[2] = tested on: PHTX-14B breast xenograft; experiment: In vivo tumor efficacy, PHTX-14B breast xenograft model; design: species or system female Balb/c nude mice; details: for Average tumor volume at day 21: PO
Text: as §1, with “PHTX-14B” for “PHTX-147B”, “Ltd) using a 13-gauge trocar tumor implantation needle.” for “Ltd.).”
as §2, §3, §4, §5

[3] = tested on: SUM-149PT breast xenograft; experiment: In vivo tumor efficacy, SUM-149PT breast xenograft model; design: species or system Balb/c Nude mice; details: PO
Method: SUM-149PT (5×10^6) is a tumor cell line grown in Ham's F12 (BD Biosciences) media with 5% FBS, supplemented with 5 μg/ml insulin and 1 μg/ml hydrocortisone media mixed with an equal volume of Matrigel (BD Biosciences). Cell suspension at passage 84 was aseptically injected into the subcutaneous space in the right dorsal flank of Balb/c Nude mice (age 8 weeks, Shanghai SINO-British SIPPR/BK Lab Animal Ltd.) using a 25-gauge needle.
as §2, §3, §4, §5

[4] = MLN0128 alone at 0.3 mg/kg, QD×21
[5] = MLN8237 alone at 3 mg/kg, QD×21
[6] = MLN8237 alone at 20 mg/kg, QD×21

SMILES: CC(C)n1nc(-c2ccc3oc(N)nc3c2)c2c(N)ncnc21 [MLN0128, 3-(2-amino-1,3-benzoxazol-5-yl)-1-(propan-2-yl)-1H-pyrazolo [3,4-d] pyrimidin-4-amine]
- Average tumor volume at day 21 ([1]; 0.3 mg/kg MLN0128, QD): 1354.1 mm^3
- Average tumor volume at day 21 ([1]; 1 mg/kg MLN0128, QD × 3/week): 974.8 mm^3
- effect on growth of PHTX-147B xenografts [1, 4]: responded moderately
- effect on growth of PHTX-147B xenografts ([1]; MLN0128 alone at 1.0 mg/kg, QD×3/wk×3): significantly delayed the growth
- Average tumor volume at day 21 ([2]; 0.3 mg/kg MLN0128, QD): 539.1 mm^3
- Average tumor volume at day 21 ([2]; 1 mg/kg MLN0128, QD × 3/week): 475.6 mm^3
- effect on growth of PHTX-14B xenografts ([2]; MLN0128 at 0.3 mg/kg alone, QD×21): significantly delayed growth
- effect on growth of PHTX-14B xenografts ([2]; MLN0128 at 1.0 mg/kg alone): significantly delayed growth
- Average tumor volume at day 21 ([3]; 0.3 mg/kg MLN0128, QD): 524.5 mm^3
- Average tumor volume at day 21 ([3]; 1 mg/kg MLN0128, QD × 3/week): 696.8 mm^3
- effect on growth of SUM149PT xenografts [3, 4]: significantly delayed the growth
- effect on growth of SUM149PT xenografts ([3]; MLN0128 alone at 1.0 mg/kg, QD×3/wk×3 weeks): only responded lightly

SMILES: COc1cc(Nc2ncc3c(n2)-c2ccc(Cl)cc2C(c2c(F)cccc2OC)=NC3)ccc1C(=O)[O-].O.[Na+] [MLN8237, sodium 4-{[9-chloro-7-(2-fluoro-6-methoxyphenyl)-5H-pyrimido[5,4-d][2]benzazepin-2-yl]amino}-2-methoxybenzoate monohydrate]
- Average tumor volume at day 21 ([1]; 3 mg/kg MLN8237, QD): 1951.9 mm^3
- Average tumor volume at day 21 ([1]; 20 mg/kg MLN8237, QD): 1694.9 mm^3
- effect on PHTX-147B xenograft growth [1, 5]: only slight or no effect
- effect on PHTX-147B xenograft growth [1, 6]: only slight or no effect
- Average tumor volume at day 21 ([2]; 3 mg/kg MLN8237, QD): 795.1 mm^3
- Average tumor volume at day 21 ([2]; 20 mg/kg MLN8237, QD): 533.9 mm^3
- antitumor activity in PHTX-14B xenografts ([2]; MLN8237 at 3 mg/kg alone, QD×21): limited and not significant
- effect on growth of PHTX-14B xenografts ([2]; MLN8237 at 20 mg/kg alone, QD×21): significantly delayed growth
- Average tumor volume at day 21 ([3]; 3 mg/kg MLN8237, QD): 613.4 mm^3
- Average tumor volume at day 21 ([3]; 20 mg/kg MLN8237, QD): 451.6 mm^3
- effect on growth of SUM149PT xenografts [3, 5]: significantly delayed the growth
- effect on growth of SUM149PT xenografts [3, 6]: significantly delayed the growth
